According to patent publication US20240336629A1, “Tricyclic Derivatives Useful As PARP7 Inhibitors” (JACOBIO PHARMACEUTICALS CO., LTD., priority 2021, published 2024):

Assays:
PARP7 enzyme = PARP7 enzyme (Homo sapiens (Human), UniProt Q7Z3E1); test: PARP7 enzymatic experiment (HTRF assay); type: biochemical; conditions: 4PL fit
[1] = system: lung cancer cell line H1373 (high expression of PARP7); test: Lung cancer cell proliferation inhibition experiment (CTG method); type: cell-based; conditions: H1373 cells, 144 hrs incubation, Cell Titer Glo

Chain of PARP7 enzyme (Q7Z3E1 456-657): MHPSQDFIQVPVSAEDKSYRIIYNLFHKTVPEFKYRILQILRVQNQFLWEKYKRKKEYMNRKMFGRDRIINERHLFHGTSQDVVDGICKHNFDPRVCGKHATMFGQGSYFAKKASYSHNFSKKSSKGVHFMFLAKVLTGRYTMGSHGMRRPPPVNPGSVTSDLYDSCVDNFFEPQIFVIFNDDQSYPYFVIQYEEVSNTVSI

For `O=C(CCOC[C@@H]1CCN1c1cn[nH]c(=O)c1C(F)(F)F)N1CCN2c3ncc(C(F)(F)F)cc3OC[C@@H]2C1` [Compound 89A], the IC50 (PARP7 enzyme) was 0.000696 µM and the IC50 ([1]; Homo sapiens, NCI-H1373, 144 h) was 0.0106 µM.

With `C[C@@H](COCCC(=O)N1CCN2c3ncc(F)cc3N(C3CC3)C(=O)[C@@H]2C1)Nc1cn[nH]c(=O)c1C(F)(F)F` [Compound 28B] the IC50 (PARP7 enzyme) was 0.00787 µM and the IC50 [1] was 0.761 µM.

`CC(=O)c1c(N[C@@H](C)COCCC(=O)N2CCN3c4ncc(C(F)(F)F)cc4N(C)C(=O)[C@@H]3C2)cn[nH]c1=O` [Compound 13A] gave an IC50 (PARP7 enzyme) of 0.00136 µM and an IC50 ([1]; Homo sapiens, NCI-H1373, 144 h) of 0.0357 µM.

In the case of `CC[C@@H](COCCC(=O)N1CCN2c3ncc(C(F)(F)F)cc3N(C)C(=O)[C@H]2C1)Nc1cn[nH]c(=O)c1C(F)(F)F` [Compound 15B], the IC50 (PARP7 enzyme) was 0.00286 µM and the IC50 ([1]; Homo sapiens, NCI-H1373, 144 h) was 0.187 µM.

For `C[C@@H](COCCC(=O)N1CCN2c3ncc(C(F)(F)F)cc3[C@](C)(O)[C@@H]2C1)Nc1cn[nH]c(=O)c1C(F)(F)F` [Compound 79B], the IC50 (PARP7 enzyme) was 0.00467 µM and the IC50 ([1]; Homo sapiens, NCI-H1373, 144 h) was 0.341 µM.

For `O=C(CCOC[C@@H]1CCN1c1cn[nH]c(=O)c1C(F)(F)F)N1CCN2c3ncc(C(F)(F)F)cc3OC[C@H]2C1` [Compound 89B], the IC50 (PARP7 enzyme) was 0.000658 µM and the IC50 ([1]; Homo sapiens, NCI-H1373, 144 h) was 0.00692 µM.

For `C[C@@H](COCCC(=O)N1CCN2c3ncc(C(F)(F)F)cc3[C@@](C)(O)[C@@H]2C1)Nc1cn[nH]c(=O)c1C(F)(F)F` [Compound 79A], the IC50 (PARP7 enzyme) was 0.00725 µM and the IC50 ([1]; Homo sapiens, NCI-H1373, 144 h) was 0.572 µM.

With `C[C@H]1C[C@H]2CN(C(=O)CCOC[C@@H]3CCN3c3cn[nH]c(=O)c3C(F)(F)F)CCN2c2ncc(C(F)(F)F)cc21` (single isomer, unassigned) [Compound 94D] the IC50 (PARP7 enzyme) was 0.00355 µM and the IC50 [1] was 0.0158 µM.

Compound `COC[C@@H](COCCC(=O)N1CCN2c3ncc(C(F)(F)F)cc3OC[C@H]2C1)Nc1cn[nH]c(=O)c1C(F)(F)F` (single isomer, unassigned) [Compound 66A] has an IC50 (PARP7 enzyme) of 0.00205 µM and an IC50 [1] of 0.0855 µM.

Compound `CC(OCCC(=O)N1CCN2c3ncc(C(F)(F)F)cc3N(C)C(=O)C2C1)[C@@H]1CCN1c1cn[nH]c(=O)c1C(F)(F)F` (stereo partly shown) [Compound 96] has an IC50 (PARP7 enzyme) of 0.00327 µM and an IC50 [1] of 0.0221 µM.

`CC(=O)c1c(N[C@@H](C)COCCC(=O)N2CCN3c4ncc(C(F)(F)F)cc4N(C)C(=O)[C@H]3C2)cn[nH]c1=O` [Compound 13B] gave an IC50 (PARP7 enzyme) of 0.00173 µM and an IC50 ([1]; Homo sapiens, NCI-H1373, 144 h) of 0.0522 µM.

`CCN1C(=O)[C@@H]2CN(C(=O)CCOC[C@H](C)Nc3cn[nH]c(=O)c3C(F)(F)F)CCN2c2ncc(Cl)cc21` [Compound 22A] gave an IC50 (PARP7 enzyme) of 0.000846 µM and an IC50 ([1]; Homo sapiens, NCI-H1373, 144 h) of 0.139 µM.

`O=C(CCOC[C@@H]1CCN1c1cn[nH]c(=O)c1C(F)(F)F)N1CCn2c(cc3cc(C(F)(F)F)cnc32)C1` [Compound 91] showed an IC50 (PARP7 enzyme) of 0.000496 µM and an IC50 ([1]; Homo sapiens, NCI-H1373, 144 h) of 0.0113 µM.

Compound `C[C@@H](COCCC(=O)N1CCN2c3ncc(F)cc3N(C)C(=O)[C@@H]2C1)Nc1cn[nH]c(=O)c1C(F)(F)F` (single isomer, unassigned) [Compound 19A] has an IC50 (PARP7 enzyme) of 0.0017 µM and an IC50 ([1]; Homo sapiens, NCI-H1373, 144 h) of 0.269 µM.

`CC(=O)c1c(N[C@@H](C)COCCC(=O)N2CCN3c4ncc(C(F)(F)F)cc4OCC[C@H]3C2)cn[nH]c1=O` (single isomer, unassigned) [Compound 70A] was tested, and the IC50 (PARP7 enzyme) was 0.0015 µM and the IC50 [1] was 0.0287 µM.

`C[C@@H](COCCC(=O)N1CCN2c3ncc(Br)cc3N(C)C(=O)[C@@H]2C1)Nc1cn[nH]c(=O)c1C(F)(F)F` [Compound 21A] gave an IC50 (PARP7 enzyme) of 0.000424 µM and an IC50 ([1]; Homo sapiens, NCI-H1373, 144 h) of 0.0809 µM.

In the case of `CN1C(=O)[C@H]2CN(C(=O)CCOC[C@@H]3CCN3c3cn[nH]c(=O)c3C(F)(F)F)CCN2c2ncc(Cl)cc21` [Compound 88B], the IC50 (PARP7 enzyme) was 0.000446 µM and the IC50 ([1]; Homo sapiens, NCI-H1373, 144 h) was 0.00294 µM.

`C[C@@H](COCCC(=O)N1CCN2c3ncc(F)cc3N(C3CC3)C(=O)[C@@H]2C1)Nc1cn[nH]c(=O)c1C(F)(F)F` [Compound 28A] was tested, and the IC50 (PARP7 enzyme) was 0.00753 µM and the IC50 [1] was 0.275 µM.

With `C[C@@H](COCCC(=O)N1CCN2c3ncc(C(F)(F)F)cc3C(=O)C[C@@H]2C1)Nc1cn[nH]c(=O)c1C(F)(F)F` (single isomer, unassigned) [Compound 76A] the IC50 (PARP7 enzyme) was 0.00331 µM and the IC50 [1] was 0.36 µM.

Compound `COc1ccc(Cn2ncc(N3CC(C)(C)[C@H]3COCCC(=O)N3CCN4c5ncc(C(F)(F)F)cc5N(C)C(=O)[C@@H]4C3)c(C(F)(F)F)c2=O)cc1` (single isomer, unassigned) [Compound 95A] has an IC50 (PARP7 enzyme) of 0.00357 µM and an IC50 [1] of 0.0399 µM.

In the case of `C[C@@H](COCCC(=O)N1CCN2c3ncc(Cl)cc3SCC[C@@H]2C1)Nc1cn[nH]c(=O)c1C(F)(F)F` [Compound 73A], the IC50 (PARP7 enzyme) was 0.000769 µM and the IC50 ([1]; Homo sapiens, NCI-H1373, 144 h) was 0.0223 µM.

In the case of `C[C@@H](COCCC(=O)N1CCN2c3ncc(C(F)(F)F)cc3[C@](C)(O)[C@H]2C1)Nc1cn[nH]c(=O)c1C(F)(F)F` [Compound 79D], the IC50 (PARP7 enzyme) was 0.00318 µM and the IC50 ([1]; Homo sapiens, NCI-H1373, 144 h) was 0.742 µM.

`C[C@@H](COCCC(=O)N1CCN2c3ncc(C(F)(F)F)cc3C(F)(F)C[C@H]2C1)Nc1cn[nH]c(=O)c1C(F)(F)F` (single isomer, unassigned) [Compound 77B] gave an IC50 (PARP7 enzyme) of 0.004 µM and an IC50 [1] of 0.334 µM.
